Laboratory results: patent US4169197A, “6-Deoxyneamines aminoglycoside compounds” (The Upjohn Company, priority 1978, dated 1979)
In brackets after ≈: the same amount, converted by molar mass. Where two headings read alike, the source gives them in different places.

Tests used:
Assay type in all cases: cell-based
B. cereus UC 3145 = experiment: standard disc plate assay, zones of inhibition; conditions: Bacillus cereus, 12.5 mm paper discs; for zone of inhibition at 100 µg/mL: UC3145, read-out: Zones of Inhibition, 0.1 mg/ml; for zone of inhibition at 1000 µg/mL: UC3145, read-out: Zones of Inhibition, 1 mg/ml
Excerpt: (§1) The compounds of formulas (V, VII, IX, XI, XIV, XVI, and XIX) are active as antibacterials and can be used in various environments to erradicate or control susceptible microorganisms. Tables I and II set forth the in vitro antibacterial test results for representative compounds of the present invention. The results were obtained with a standard disc plate assay using 12.5 mm paper discs.

B. subtilis UC 564 = experiment: standard disc plate assay, zones of inhibition; conditions: Bacillus subtilis, 12.5 mm paper discs; for zone of inhibition at 100 µg/mL: UC564, read-out: Zones of Inhibition, 0.1 mg/ml; for zone of inhibition at 1000 µg/mL: UC564, read-out: Zones of Inhibition, 1 mg/ml
Excerpt: as §1

E. coli UC 51 = experiment: standard disc plate assay, zones of inhibition; conditions: Escherichia coli, 12.5 mm paper discs; for zone of inhibition at 100 µg/mL: UC51, read-out: Zones of Inhibition, 0.1 mg/ml; for zone of inhibition at 1000 µg/mL: UC51, read-out: Zones of Inhibition, 1 mg/ml
Excerpt: as §1

K. pneumoniae UC 57 = experiment: standard disc plate assay, zones of inhibition; conditions: Klebsiella pneumoniae, 12.5 mm paper discs; for zone of inhibition at 100 µg/mL: UC57, read-out: Zones of Inhibition, 0.1 mg/ml; for zone of inhibition at 1000 µg/mL: UC57, read-out: Zones of Inhibition, 1 mg/ml
Excerpt: as §1

Ps. aeruginosa UC 95 [1] = experiment: standard disc plate assay, zones of inhibition; conditions: Pseudomonas aeruginosa, UC95, read-out: Zones of Inhibition, 1 mg/ml, 12.5 mm paper discs
Excerpt: as §1

S. gallinarum UC 265 = experiment: standard disc plate assay, zones of inhibition; conditions: for Zones of Inhibition: 12.5 mm paper discs, Table II
Excerpt: as §1

S. lutea UC 130 = experiment: standard disc plate assay, zones of inhibition
Excerpt: as §1

S. schottmuelleri UC 126 [2] = experiment: standard disc plate assay, zones of inhibition; conditions: 12.5 mm paper discs; for zone of inhibition at 100 µg/mL: 0.1 mg/ml; for zone of inhibition at 1000 µg/mL: 1 mg/ml
Excerpt: as §1

E. coli UC 311 = experiment: standard microplate test in BHI Agar; conditions: Escherichia coli, UC311, 20 h, read-out: Minimal Inhibitory Concentration
Procedure: (§2) The compounds VII, XI, XVβ, XVα and XVI were tested in a standard microplate test in BHI (Brain Heart Infusion) Agar at a concentration of 1 mg./ml. and dilutions thereof at 37° incubation temperature. The end points are read out 20 hours. BHI Agar is supplied by Difco Laboratories, Detroit, Mich.

E. coli UC 45 = experiment: standard microplate test in BHI Agar; conditions: Escherichia coli, UC45, 37°, 20 hours, Table III, read-out: Minimum Inhibitory Concentration
Procedure: as §2

K. pneumoniae UC 58 = experiment: standard microplate test in BHI Agar; conditions: Klebsiella pneumoniae, UC58, 20 h
Procedure: as §2

P. mirabilis UC 6671 = experiment: standard microplate test in BHI Agar; conditions: Proteus mirabilis, UC6671, 20 h
Procedure: as §2

P. morganii UC 3186 = experiment: standard microplate test in BHI Agar; conditions: Morganella morganii, UC3186, 20 h
Procedure: as §2

P. rettgeri UC 339 = experiment: standard microplate test in BHI Agar; conditions: Providencia rettgeri, UC339, 20 h
Procedure: as §2

P. vulgaris UC 93 = experiment: standard microplate test in BHI Agar; conditions: Proteus vulgaris, UC93, 20 h
Procedure: as §2

Ps. aeruginosa UC 95 [3] = experiment: standard microplate test in BHI Agar; conditions: Pseudomonas aeruginosa, UC95, 20 h
Procedure: as §2

S. aureus UC 76 = experiment: standard microplate test in BHI Agar; conditions: Staphylococcus aureus, UC76, 20 h
Procedure: as §2

S. faecalis UC 694 = experiment: standard microplate test in BHI Agar; conditions: Enterococcus faecalis, UC694, 20 h
Procedure: as §2

S. flexneri UC 143 = experiment: standard microplate test in BHI Agar; conditions: Shigella flexneri, UC143, 37°, 20 hours
Procedure: as §2

S. marcescens UC 131 = experiment: standard microplate test in BHI Agar; conditions: Serratia marcescens, UC131, 20 h
Procedure: as §2

S. pneumoniae I UC 41 = experiment: standard microplate test in BHI Agar; conditions: Streptococcus pneumoniae, UC41, 20 h
Procedure: as §2

S. pyogenes UC 152 = experiment: standard microplate test in BHI Agar; conditions: Streptococcus pyogenes, UC152, 20 h
Procedure: as §2

S. schottmuelleri UC 126 [4] = experiment: standard microplate test in BHI Agar; conditions: 37°, 20 hours
Procedure: as §2

S. typhi UC 215 = experiment: standard microplate test in BHI Agar; conditions: Salmonella enterica, BHI Agar, 37°, 20 hours
Procedure: as §2

[5] = Salmonella enterica, read-out: Zones of Inhibition
[6] = read-out: Minimal Inhibitory Concentration
[7] = read-out: Minimum Inhibitory Concentration
[8] = Table III, read-out: Minimum Inhibitory Concentration
[9] = Table IV, read-out: Minimal Inhibitory Concentration

NC[C@H]1O[C@H](O[C@H]2[C@H](O)[C@@H](O)[C@H](N)C[C@@H]2N)[C@H](N)[C@@H](O)[C@@H]1O [Neamine]
zone of inhibition at 100 µg/mL (B. cereus UC 3145; Table I): 15 mm | zone of inhibition at 100 µg/mL (B. cereus UC 3145; Table II): 15 mm | zone of inhibition at 1000 µg/mL (B. cereus UC 3145; Table I): 24 mm | zone of inhibition at 1000 µg/mL (B. cereus UC 3145; Table II): 23 mm | zone of inhibition at 100 µg/mL (B. subtilis UC 564; Table I): 30 mm | zone of inhibition at 100 µg/mL (B. subtilis UC 564; Table II): 28 mm | zone of inhibition at 1000 µg/mL (B. subtilis UC 564; Table I): 39 mm | zone of inhibition at 1000 µg/mL (B. subtilis UC 564; Table II): 37 mm | zone of inhibition at 100 µg/mL (E. coli UC 51; Table I): 19 mm | zone of inhibition at 100 µg/mL (E. coli UC 51; Table II): 18 mm | zone of inhibition at 1000 µg/mL (E. coli UC 51; Table I): 27 mm | zone of inhibition at 1000 µg/mL (E. coli UC 51; Table II): 25 mm | zone of inhibition at 100 µg/mL (K. pneumoniae UC 57; Table I): 27 mm | zone of inhibition at 100 µg/mL (K. pneumoniae UC 57; Table II): 26 mm | zone of inhibition at 1000 µg/mL (K. pneumoniae UC 57; Table I): 34 mm | zone of inhibition at 1000 µg/mL (K. pneumoniae UC 57; Table II): 32 mm | zone of inhibition at 1000 µg/mL (Ps. aeruginosa UC 95 [1]; Table I): 17 mm | zone of inhibition at 1000 µg/mL (Ps. aeruginosa UC 95 [1]; Table II): 18 mm | Zones of Inhibition (S. gallinarum UC 265; 0.1 mg/ml): 19 mm | Zones of Inhibition (S. gallinarum UC 265; 1 mg/ml): 29 mm | zone of inhibition at 100 µg/mL (S. gallinarum UC 265; [5]): 19 mm | zone of inhibition at 1000 µg/mL (S. gallinarum UC 265; [5]): 29 mm | Zones of Inhibition (S. lutea UC 130; 1 mg/ml, 12.5 mm paper discs, Table II): 17 mm | zone of inhibition at 1000 µg/mL (S. lutea UC 130; Micrococcus luteus, UC130, read-out: Zones of Inhibition): 17 mm | zone of inhibition at 100 µg/mL (S. schottmuelleri UC 126 [2]; Table I): 16 mm | zone of inhibition at 100 µg/mL (S. schottmuelleri UC 126 [2]; Table II): 15 mm | zone of inhibition at 1000 µg/mL (S. schottmuelleri UC 126 [2]; Table I): 24 mm | zone of inhibition at 1000 µg/mL (S. schottmuelleri UC 126 [2]; Table II): 23 mm | MIC (E. coli UC 311): 125 µg/mL (≈ 388 µM) | MIC (E. coli UC 45): 62.5 µg/mL (≈ 194 µM) | MIC (K. pneumoniae UC 58; [6]): 7.8 µg/mL (≈ 24.2 µM) | MIC (K. pneumoniae UC 58; [7]): 15.6 µg/mL (≈ 48.4 µM) | MIC (P. mirabilis UC 6671; [6]): 250 µg/mL (≈ 776 µM) | MIC (P. mirabilis UC 6671; [7]): 62.5 µg/mL (≈ 194 µM) | MIC (P. morganii UC 3186; [6]): 31.2 µg/mL (≈ 96.8 µM) | MIC (P. morganii UC 3186; [7]): 62.5 µg/mL (≈ 194 µM) | MIC (P. rettgeri UC 339; [6]): > 500 µg/mL | MIC (P. rettgeri UC 339; [7]): 250 µg/mL (≈ 776 µM) | MIC (P. vulgaris UC 93; [6]): 62.5 µg/mL (≈ 194 µM) | MIC (P. vulgaris UC 93; [7]): 62.5 µg/mL (≈ 194 µM) | MIC (Ps. aeruginosa UC 95 [3]; [6]): > 500 µg/mL | MIC (Ps. aeruginosa UC 95 [3]; [7]): > 500 µg/mL | MIC (S. aureus UC 76; [6]): 7.8 µg/mL (≈ 24.2 µM) | MIC (S. aureus UC 76; [7]): 3.9 µg/mL (≈ 12.1 µM) | MIC (S. faecalis UC 694; [6]): > 500 µg/mL | MIC (S. faecalis UC 694; [7]): > 500 µg/mL | MIC (S. flexneri UC 143; [8]): 62.5 µg/mL (≈ 194 µM) | MIC (S. flexneri UC 143; [9]): 125 µg/mL (≈ 388 µM) | MIC (S. marcescens UC 131; [6]): 250 µg/mL (≈ 776 µM) | MIC (S. marcescens UC 131; [7]): 250 µg/mL (≈ 776 µM) | MIC (S. pneumoniae I UC 41; [6]): 62.5 µg/mL (≈ 194 µM) | MIC (S. pneumoniae I UC 41; [7]): 62.5 µg/mL (≈ 194 µM) | MIC (S. pyogenes UC 152; [6]): 7.8 µg/mL (≈ 24.2 µM) | MIC (S. pyogenes UC 152; [7]): 7.8 µg/mL (≈ 24.2 µM) | MIC (S. schottmuelleri UC 126 [4]; [8]): 31.2 µg/mL (≈ 96.8 µM) | MIC (S. schottmuelleri UC 126 [4]; [9]): 15.6 µg/mL (≈ 48.4 µM) | MIC (S. typhi UC 215; [8]): 15.6 µg/mL (≈ 48.4 µM) | MIC (S. typhi UC 215; [9]): 31.2 µg/mL (≈ 96.8 µM)
